Where two headings read alike, the source gives them in different places. {NH2} = amino group (5'-NH2) on the aptamer

The target of data set [1] is T1, lysozyme (Gallus gallus, UniProt P00698).
T1 construct: Hen egg white lysozyme, BSA, and human trypsin were ordered from Sigma-Aldrich; purchased Sigma-Aldrich; host or cells: hen egg white
The note with it: in solution; read-out: Kd measured in solution; cited from earlier work.

Data set [2] deals with T1, lysozyme. Nature of the data set: Aptamer/lysozyme binding affinity (Kd). The arrangement: species or system Hen. Here is the method: The LOD is estimated to be 0.36 μg/mL (2.4 pmol, based on 3σ from six independent measurements) using a standard fluorometer, which is more sensitive to aptamer-based electrochemical and fluorescent arrays and is similar to that obtained from a standard of ELISA. (See Vidal, M. L., et al., Agric. Food Chem. 2005, 53, 2379-2385, the entire teachings of which are incorporated herein by reference). However, the strategy of using Apt-NP as a platform for lysozyme detection reduces the bonding affinity (Kd) of the aptamer to its target. […] (See, for example, Cox, J. C.; Ellington, A. D., Bioorg. Med. Chem. 2001, 9, 2525-2531, the entire teachings are incorporated herein by reference). The large Kd on the NP surface is detrimental to assay sensitivity, could be the result of: (1) the steric hindrance induced by the folded aptamer upon binding to lysozyme which prevents the adjacent aptamers from folding into G-quartet structure; (2) the binding of lysozyme on the Apt-NP surface hampers subsequent aptamer/lysozyme binding due to electrostatic repulsion.

Data set [3] can be described thus: Photostability in stained cells under continuous laser scanning (CLSM). The note with it: excitation at 405 nm; MCF-7 cells. It is filed as physicochemical. Here is the method:
FIG. 2 is time-resolved confocal laser scanning microscopy (CLSM) fluorescence images of SKBR-3 breast cancer cells stained by affibody-attached P2 under laser scanning for (a) 0 min and (b) 15 minutes.
FIG. 8 is confocal image of Hela cells under continuous excitation (λmax=488 nm) after 0 min (A) and 15 min (B) and the fluorescence/transmission overlapped images of the corresponding cells (C, D) taken after incubation with P3-phalloidin for 2 h at 0.5 μM.
I0 is the initial fluorescence intensity of the sample […].
Targeted fluorescence imaging of HER2-positive cancer cells using a P2-affibody conjugate was investigated. […]
To explore the potential of the CPE-g-PEG molecular brush in long-term clinical applications, the photostability and cytotoxicity of P4.1 were investigated. Changes in the CLSM images of P4.1-stained MCF-7 cells under continuous laser scanning were monitored to evaluate the photostability of P4.1 in cells. […] In comparison, most commercial dyes (such as fluorescein, rhodamine and Cy5) usually lose their fluorescence within 3 minutes under CLSM laser illumination. […]
The uptake of HCPEPEI-1/DNA and HCPEPEI-2/DNA polyplexes by COS-7 cells was monitored using confocal lasing scanning microscopy (CLSM). […] The dual modal HCPEPEIs fluorescent gene vectors could facilitate in tracking the delivery of genes due to the intrinsic fluorescence from the HCPE core. […]

T1 sequence (P00698 19-147): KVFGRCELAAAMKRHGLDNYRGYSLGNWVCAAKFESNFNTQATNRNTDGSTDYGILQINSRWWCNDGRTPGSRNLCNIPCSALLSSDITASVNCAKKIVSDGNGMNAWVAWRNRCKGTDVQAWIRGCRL

As to “5′-NH2-ATCTACGAATTCATCAGGGCTAAAGAGTGCAGAGTTACTTAG (ATCTACGAATTCATCAGGGCTAAAGAGTGCAGAGTTACTTAG; 5' {NH2}, sugars by position and backbone not given here) [aptamer]”, the Kd in the data set with lysozyme [1] was 0.031 µM; with lysozyme [2] (aptamer on silica NP surface, lysozyme concentration at half-maximum signal, read-out: apparent Kd) it was around 0.625 µM. Also, the “apparent Kd” value with lysozyme [2] (aptamer on silica NP surface, lysozyme concentration at half-maximum signal) is reported as “approximately 9 μg/mL”. In addition, in the data set with lysozyme [2] (larger), the “Kd on NP surface relative to Kd in solution” value turned out to be 20 fold.
Regarding `O=C1OC2(c3ccc(O)cc3Oc3cc(O)ccc32)c2ccc(N=C=S)cc21` [FITC], the “decrease of fluorescence intensity after continuous excitation” value in data set [3] is around 56%.
Turning to “Poly[9,9-bis(2-(2-(2-methoxyethoxy)ethoxy)ethyl)fluorenevinylene-alt-9,9-bis(4-sulfonatobutyl)fluorenevinylene Sodium Salt] [PFVSO3]”, the water solubility result was “approximately 20 mg/mL”.

The values are drawn from patent publication US20130189727A1, “Methods And Compositions For Cellular Imaging And Cancer Cell Detection Using Light Harvesting Conjugated Polymer-Biomolecular Conjugates” (NATIONAL UNIVERSITY OF SINGAPORE, priority 2010, published 2013).
